# Test results from US20210038668A1, “TRADITIONAL CHINESE MEDICINE COMPOSITION FOR PREVENTING AND/OR TREATING ISCHEMIC REPERFUSION INJURY” (TASLY PHARMACEUTICAL GROUP CO., LTD., priority 2018, published 2021).
# Key:
# [1] = test system: thrombus of arteria carotis communis; assay: Observation of carotid thrombus size, FeCl3 model; format: in vivo, C57BL/6 mice
# Protocol: Mice were anesthetized via intraperitoneal injection by pentobarbital sodium (2%, 45 mg/kg), and neck kin was sterilized. A median incision was cut on the neck, exposed and isolated to obtain arteria carotis communis; a waterproof cushion was used to isolate arteria carotis communis with the length of about 2.5-3 mm from surrounding tissues. The isolated arteria carotis communis was wrapped by a filter paper soaked by 10% FeCl3 for about 1 mm (width), and the filter paper was removed 3 minutes later, the outside of blood vessel was washed by 0.9% normal saline. The waterproof cushion was removed. The neck incision was sutured. The start of Fe3+ stimulation was defined as the beginning of ischemia, and those mice meeting the following conditions were selected into the group: the blood vessel was blocked at the maximum diameter of the neck thrombus 10 minutes after ischemia; the blood flow of the carotid artery distal end was less than 20% of the base value 15 minutes after ischemia; and the thrombus was stable 4.5 hours after ischemia (before reperfusion); the carotid artery vessel at 60% and more of the diameter was blocked by the maximum diameter of the thrombus.
# Mice were treated by medicaments or normal saline according to random grouping results 4.5 hours after ischemia. Mice femoral vein was intubated, and left femoral vein was injected tPA (tissue plasminogen activator) or normal saline; right femoral vein was injected the traditional Chinese medicinal composition of the present invention or normal saline; 10% of the total dose was injected via an injection pump, and the rest 90% were continuously injected intravenously for 1 hour with the rate of 0.1 ml/h. Three proportion groups were selected to the traditional Chinese medicinal composition of the present invention respectively below:
# Carotid thrombus of mice was dynamically observed by an upright microscope. Anesthetized mice were placed on a board in supine position, a median incision was cut on the neck; arteria carotis communis was exposed and separated; femoral vein was given Acridine red fluorescence labeling of blood platelet to observe the change of carotid thrombus of mice before ischemia (namely, a base value), 10 minutes after ischemia, 4.5 hours after ischemia (namely, before reperfusion), 1 hour after reperfusion, 2 hours after reperfusion and 24 hours after reperfusion. There was no thrombus before ischemia (namely, a base value); the blood vessel was blocked by thrombus at a maximum diameter 10 minutes after ischemia; blood flow at the distal end of carotid artery decreased to 20% of the base value below 15 minutes after ischemia; the thrombus was stable 4.5 hours after ischemia (namely, before reperfusion). The success criterion is that the size of thrombus blocks 60% of the vascular area of carotid artery and above; the success rate of entry is up to 90.9%. Excepting for the sham-operated group and each basal group, the rest groups were randomly allocated after building models successfully.
# [2] = test system: ZO-1; assay: Western blotting of ZO-1, cortex of ischemic penumbra; format: in vivo, C57BL/6 mice; settings: brain tissue 24 hours after administration, sham = 1.00; tPA 10 mg/kg alone; T541 20 mg/kg + tPA 10 mg/kg
# Protocol: After reperfused for 24 hours, mice were perfused by normal saline; Western blotting analysis was conducted to the penumbra field of infarcted right cerebral cortex. After perfused, mice brain tissue was taken out; cerebellum and prefrontal lobe were cut off; the brain tissue of right brain close to 1 cm of the central joint of left and right hemispheres along the sagittal view; infarcted penumbra field of the rest tissues was cut off along an 45° angle; the cerebral cortex of the penumbra field was peeled off and preserved at low temperature. Right cerebral cortex was taken and added 1×RIPA lysate and a Cocktail protease inhibitor (1:100, Cell Signaling Technology, US) for full pyrolysis and ultrasonic treatment, and then 17000 g were centrifuged for 30 minutes. Supernatant was taken and added 5×loading buffer by volume, boiled for 20 minutes in boiling water, and then preserved at −80° C. Excessive supernatant was taken out and quantified by a BCA protein quantification liquor (ThermoScientific, US) to measure absorbance value at 560 nm of ELIASA and to calculate the protein concentration according to a standard curve. […] The density of electrophoretic strips was analyzed by an image analysis software Quantityone. […]
# [3] = before administration, groups: tPA 10 mg/kg alone, T541 20 mg/kg, T141 12 mg/kg, T582 15 mg/kg each + tPA 10 mg/kg
# [4] = iv, tPA 10 mg/kg alone, T541 20 mg/kg, T141 12 mg/kg, T582 15 mg/kg each + tPA 10 mg/kg
substance,measurement,setting,value
tPA: tissue-type plasminogen activator (tPA) for thrombolysis,"Size of thrombus, 10 minutes after FeCl3 simulation",[1]; [3],25.13 ± 1.34
same,"Size of thrombus, Before FeCl3 simulation",[1]; [3],0 ± 0
same,thrombolysis effect (in words),"[1]; given alone: T541 20 mg/kg, tPA 10 mg/kg (24 hours later)",size of thrombus decreases obviously
same,"Size of thrombus, 5.5 hours after FeCl3 simulation (1 hour after administration)",[1]; [4],22.14 ± 1.36
same,"Size of thrombus, 6.5 hours after FeCl3 simulation (2 hours after administration)",[1]; [4],16.64 ± 4.10
same,"Size of thrombus, 28.5 hours after FeCl3 simulation (24 hours after administration)",[1]; [4],11.15 ± 2.61
same,"Size of thrombus, 4.5 hours after FeCl3 simulation","[1]; start of administration, groups: tPA 10 mg/kg alone, T541 20 mg/kg, T141 12 mg/kg, T582 15 mg/kg each + tPA 10 mg/kg",23.47 ± 1.78
same,ZO-1/β-actin,[2],0.42 ± 0.05
